We go through 8 molecules from PubChem BioAssay (NCI).

SMILES strings stand for the structures.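 Grown in 96-well plates, cells were treated for 48 hours with each compound at five concentrations. Insufficient inhibition: endpoint recorded as highest concentration tested. GI50 marks 50% less growth. Definition used: TGI = concentration required for complete inhibition of growth.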

Some test systems named below: M14 melanoma; MALME-3M melanoma; IGROV1 ovarian; UO-31 renal; BT-549 breast; UACC-62 melanoma; HS 578T breast; SNB-75 CNS; MCF7 breast; LOX IMVI melanoma.
What all share (test): growth of human tumour cells (NCI), 48 h

As for `Cc1cccc2nc3cccc(C(=O)NCCNCCNCCNC(=O)c4cccc5nc6cccc(C)c6nc45)c3nc12`, the GI50 with M14 melanoma was < 0.0241 µM; in the test with MALME-3M melanoma, < 0.0302 µM; with IGROV1 ovarian, < 0.01 µM; with UO-31 renal, 0.0238 µM; with BT-549 breast, 1.73 µM; with UACC-62 melanoma, 0.0137 µM. For the same molecule, the GI50 in the test with HS 578T breast is 0.0474 µM; in the test on SNB-75 CNS, 0.181 µM; in the test on MCF7 breast, < 0.01 µM; in the test on LOX IMVI melanoma, < 0.01 µM. Besides, the TGI in the test on M14 melanoma was 1.7 µM; with MALME-3M melanoma it was 2.21 µM; in the test on IGROV1 ovarian it was > 39.3 µM; in the test with BT-549 breast, 6.25 µM; in the test with UACC-62 melanoma it was 2.01 µM; in the test on HS 578T breast, 2.24 µM. Further, the TGI in the test with SNB-75 CNS was 1.44 µM; in the test on MCF7 breast it was > 33 µM; in the test on LOX IMVI melanoma, 0.53 µM.
Regarding `CCCCCCC/C=C/[C@H]1O[C@]2(O)C(=O)C=C3C[C@@H](O[C@@H]4O[C@H](CO)[C@@H](O)C(O)[C@@H]4O)C[C@@H]3[C@H]2C=C1C` (some centres undefined), the GI50 in the test with M14 melanoma was 1.58 µM; in the test on MALME-3M melanoma, 4.8 µM; in the test with IGROV1 ovarian, 2.77 µM; with UO-31 renal, 0.666 µM; in the test on BT-549 breast, 1.18 µM; in the test with UACC-62 melanoma, 1.79 µM. The GI50 in the test on HS 578T breast is 5.5 µM; in the test on SNB-75 CNS it was 1.24 µM; in the test on MCF7 breast, 1.05 µM; with LOX IMVI melanoma, 0.677 µM. The TGI with M14 melanoma turned out to be 6.35 µM; with MALME-3M melanoma, 10.3 µM; in the test on IGROV1 ovarian it was 15.2 µM; in the test with UO-31 renal it was 2.36 µM; in the test on BT-549 breast, 5.53 µM; with UACC-62 melanoma, 6.96 µM. Besides, the TGI was determined as 28.3 µM with HS 578T breast, 5.93 µM in the test with SNB-75 CNS, 7.88 µM in the test on MCF7 breast and 1.61 µM with LOX IMVI melanoma.
On to `O=C1C(=O)c2ccccc2C(O)=C1CCCc1ccc(C2CCCC2)cc1`, for which the GI50 with M14 melanoma was 8.86 µM; with MALME-3M melanoma, 6.55 µM; with IGROV1 ovarian, 3.72 µM; in the test on UO-31 renal it was 3.85 µM; in the test on BT-549 breast, 10.5 µM; with UACC-62 melanoma, 3.73 µM. Besides, the GI50 in the test on HS 578T breast is 20.6 µM; in the test on SNB-75 CNS it was 6.55 µM; in the test with MCF7 breast, 4.21 µM; with LOX IMVI melanoma, 3.16 µM. For the same molecule, the TGI in the test with M14 melanoma is 23.7 µM; in the test with MALME-3M melanoma it was 38 µM; in the test with IGROV1 ovarian, 18.4 µM; in the test with UO-31 renal, 15.5 µM; with BT-549 breast, 48.6 µM; in the test on UACC-62 melanoma it was 18.5 µM. Moreover, the TGI with HS 578T breast stood at 85.1 µM; with SNB-75 CNS, 38.7 µM; in the test with MCF7 breast it was 21.1 µM; with LOX IMVI melanoma, 9.22 µM.
Take `CC(C)=CCC1=C(OCC(=O)O)C(=O)c2ccccc2C1=O`: the TGI in the test on M14 melanoma is > 100 µM; in the test with MALME-3M melanoma, 35 µM; with IGROV1 ovarian, > 100 µM; with UO-31 renal, > 100 µM; with BT-549 breast it was > 100 µM; in the test with UACC-62 melanoma, 37.7 µM. Also, the TGI is 62.6 µM in the test with HS 578T breast, 64.7 µM in the test with SNB-75 CNS, 96.3 µM in the test with MCF7 breast and > 100 µM with LOX IMVI melanoma.
Regarding `C[N+](C)(CCCCCC[N+](C)(C)CCCN1C(=O)c2cc3ccccc3cc2C1=O)CCCN1C(=O)c2cc3ccccc3cc2C1=O`, the GI50 in the test with M14 melanoma, with MALME-3M melanoma, with IGROV1 ovarian, in the test on UO-31 renal, in the test on BT-549 breast and in the test with UACC-62 melanoma was > 37.5 µM in each case. In addition, the GI50 in the test with HS 578T breast, with SNB-75 CNS, in the test with MCF7 breast and with LOX IMVI melanoma was > 37.5 µM each time. Besides, the TGI with M14 melanoma, in the test on MALME-3M melanoma, with IGROV1 ovarian, in the test with UO-31 renal, in the test with BT-549 breast and in the test on UACC-62 melanoma was > 37.5 µM in each case. Also, the TGI in the test on HS 578T breast, with SNB-75 CNS, in the test on MCF7 breast and in the test with LOX IMVI melanoma was > 37.5 µM throughout.
As for `Nc1nc2c(nnn2C2OC(CO)C(O)C2O)c(=O)[nH]1` (centres undefined), the GI50 with M14 melanoma was 2.07 µM; in the test with MALME-3M melanoma, 4.62 µM; in the test with IGROV1 ovarian, 2.76 µM; with UO-31 renal it was 1.71 µM; with BT-549 breast, 2.41 µM; in the test with UACC-62 melanoma, 1.14 µM. In addition, the GI50 with HS 578T breast is 12 µM; in the test with SNB-75 CNS, 5.86 µM; in the test with MCF7 breast it was 1.42 µM; in the test with LOX IMVI melanoma, 0.475 µM. For the same molecule, the TGI with M14 melanoma was > 100 µM; with MALME-3M melanoma it was > 100 µM; with IGROV1 ovarian, > 100 µM; in the test on UO-31 renal, > 100 µM; with BT-549 breast it was > 26.3 µM; in the test with UACC-62 melanoma, 12.9 µM. The TGI with HS 578T breast, in the test with SNB-75 CNS, in the test with MCF7 breast and in the test with LOX IMVI melanoma was > 100 µM each time.
Regarding `O=S1(=O)NC2CCC3NS(=O)(=O)NC4CCC(N1)N4S(=O)(=O)N23` (centres undefined), the TGI in the test on M14 melanoma, in the test with MALME-3M melanoma, with IGROV1 ovarian, in the test on UO-31 renal, with BT-549 breast and with UACC-62 melanoma was > 100 µM throughout. Also, the TGI in the test with HS 578T breast, with SNB-75 CNS, in the test with MCF7 breast and in the test on LOX IMVI melanoma was > 100 µM each time.
For the molecule `COc1cc2oc(-c3ccc(O)cc3O)c(CC=C(C)C)c(=O)c2c(O)c1/C=C/C(C)C`, the TGI in the test with M14 melanoma came out at 3.56 µM; in the test with MALME-3M melanoma, 14.2 µM; in the test with IGROV1 ovarian, 12 µM; in the test on UO-31 renal, 8.08 µM; with BT-549 breast, 11.4 µM; in the test on UACC-62 melanoma, 10.4 µM. The TGI with HS 578T breast worked out at 7.92 µM; in the test with SNB-75 CNS, 9.04 µM; in the test with MCF7 breast, 7.56 µM; with LOX IMVI melanoma, 3.32 µM.
